{"source": "ChEMBL document CHEMBL3297728", "about": "“Synthesis and antituberculosis activity of novel 5-styryl-4-(hetero)aryl-pyrimidines via combination of the Pd-catalyzed Suzuki cross-coupling and S(N)(H) reactions” (Bioorg Med Chem Lett, 2014)"}
{"test_system": "Mycobacterium tuberculosis", "assay": "Antimycobacterial activity against rifampin- and Isoniazid- resistant Mycobacterium tuberculosis Beijing harboring Ser 531-Leu 315 rpoB mutant and Ser-Thr katG mutant after 10 days by microbroth dilution method", "assay_type": "functional", "units": {"MIC": "µg/mL"}}
{"smiles": "Brc1cncnc1-c1cccs1", "MIC": 0.7}
{"smiles": "Brc1cncnc1-c1ccco1", "MIC": 1.5}
{"smiles": "C(=C\\c1cncnc1-c1ccc(-c2cccs2)s1)/c1ccc(-c2ccccc2)cc1", "MIC": 1.5}
